Tests used:
[1] = tested on: corn; test: Test B pre/postemergence corn; format: in vivo, Zea mays
Method in brief: (§1)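 Herbicidal effect was estimated by eye on a ten-point control scale after plants spent twelve to sixteen days in a greenhouse following soil or foliar treatment. Foliar sprays targeted plants at one to four leaves; all doses were formulated in a non-phytotoxic solvent with surfactant.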

[2] = tested on: blackgrass; test: Test B pre/postemergence blackgrass; format: in vivo, Alopecurus myosuroides
Method in brief: as §1

[3] = tested on: morningglory; test: Test B pre/postemergence morningglory; format: in vivo, Ipomoea hederacea
Method in brief: as §1

[4] = tested on: bamyardgrass; test: Test B flood test barnyardgrass; format: in vivo, Echinochloa crus-galli; conditions: for Plant response rating, Barnyardgrass: scale 0 to 10, 0 is no effect, 10 is complete control; for Barnyardgrass plant response rating: scale of 0 to 10 where 0 is no effect and 10 is complete control
Method in brief: (§2)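 Each value is a visual injury score relative to controls, with 10 meaning complete control and 0 no effect. Evaluation took place twelve to sixteen days after the 2-leaf-stage plants were treated and kept in the greenhouse.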

[5] = tested on: sugar beet; test: Test B pre/postemergence sugar beet; format: in vivo, Beta vulgaris
Method in brief: as §1

[6] = tested on: giant foxtail; test: Test B pre/postemergence giant foxtail; format: in vivo, Setaria faberii
Method in brief: as §1

[7] = tested on: purple nutsedge; test: Test B pre/postemergence purple nutsedge; format: in vivo, Cyperus rotundus
Method in brief: as §1

[8] = tested on: wild oat; test: Test B pre/postemergence wild oat; format: in vivo, Avena fatua
Method in brief: as §1

[9] = tested on: rice; test: Test B flood test rice; format: in vivo, Oryza sativa
Method in brief: as §2

[10] = tested on: cocklebur; test: Test B pre/postemergence cocklebur; format: in vivo, Xanthium strumarium
Method in brief: as §1

[11] = tested on: smallflower flatsedge; test: Test B flood test smallflower flatsedge; format: in vivo, Cyperus difformis
Method in brief: as §2

[12] = tested on: velvetleaf; test: Test B pre/postemergence velvetleaf; format: in vivo, Abutilon theophrasti
Method in brief: as §1

[13] = tested on: duck salad; test: Test B flood test duck salad; format: in vivo, Heteranthera limosa; conditions: for Plant response rating, Ducksalad: scale 0 to 10, 0 is no effect, 10 is complete control; for Ducksalad plant response rating: scale of 0 to 10 where 0 is no effect and 10 is complete control
Method in brief: as §2

[14] = tested on: soybean; test: Test B pre/postemergence soybean; format: in vivo, Glycine max
Method in brief: as §1

[15] = tested on: wheat; test: Test B pre/postemergence wheat; format: in vivo, Triticum aestivum
Method in brief: as §1

[16] = tested on: pigweed; test: Test B pre/postemergence pigweed; format: in vivo, Amaranthus retroflexus
Method in brief: as §1

[17] = tested on: rape; test: Test B pre/postemergence rape; format: in vivo, Brassica napus
Method in brief: as §1

[18] = tested on: surinam grass; test: Test B pre/postemergence surinam grass; format: in vivo, Brachiaria decumbens
Method in brief: as §1

[19] = tested on: crabgrass; test: Test B pre/postemergence crabgrass; format: in vivo, Digitaria sanguinalis
Method in brief: as §1

[20] = Postemergence, Rate 125 g/ha, scale 0 to 10, 0 is no effect, 10 is complete control
[21] = Postemergence, Rate 250 g/ha, scale 0 to 10, 0 is no effect, 10 is complete control
[22] = Postemergence, Rate 500 g/ha, scale of 0 to 10 where 0 is no effect and 10 is complete control
[23] = Preemergence, Rate 62 g/ha, scale 0 to 10 (0 no effect, 10 complete control)
[24] = Preemergence, Rate 125 g/ha, scale of 0 to 10 where 0 is no effect and 10 is complete control
[25] = Preemergence, Rate 250 g/ha, scale 0 to 10, 0 is no effect, 10 is complete control
[26] = Preemergence, Rate 500 g/ha, scale 0 to 10, 0 is no effect, 10 is complete control
[27] = Rate 62 g/ha, Postemergence, scale of 0 to 10 where 0 is no effect and 10 is complete control
[28] = Preemergence, Rate 250 g/ha, scale of 0 to 10 where 0 is no effect and 10 is complete control
[29] = Postemergence (flood test), Rate 125 g/ha
[30] = Postemergence section (flood test species), Rate 500 g/ha
[31] = Rate 62 g/ha, Postemergence (flood test species)
[32] = flood test species, listed under Postemergence, Rate 250 g/ha
[33] = Postemergence section (flood test species), Rate 500 g/ha, scale of 0 to 10 where 0 is no effect and 10 is complete control
[34] = flood test species, listed under Postemergence, Rate 250 g/ha, scale 0 to 10, 0 is no effect, 10 is complete control

CC(C)N(C(=O)n1oc(=O)n(CCBr)c1=O)c1ccccc1 [Compound 415]
Plant response rating, Corn [1, 20]: 0
Plant response rating, Corn [1, 21]: 1
Corn plant response rating [1, 22]: 2
Plant response rating, Corn [1, 23]: 0
Plant response rating, Corn [1, 24]: 2
Corn plant response rating [1, 25]: 3
Corn plant response rating [1, 26]: 4
Corn plant response rating [1, 27]: 0
Plant response rating, Blackgrass [2, 20]: 3
Plant response rating, Blackgrass [2, 21]: 8
Blackgrass plant response rating [2, 22]: 9
Plant response rating, Blackgrass [2, 23]: 5
Plant response rating, Blackgrass [2, 24]: 5
Blackgrass plant response rating [2, 28]: 9
Blackgrass plant response rating [2, 26]: 9
Blackgrass plant response rating [2, 27]: 0
Plant response rating, Morningglory [3, 21]: 6
Morningglory plant response rating [3, 22]: 7
Plant response rating, Morningglory [3, 23]: 0
Plant response rating, Morningglory [3, 24]: 0
Morningglory plant response rating [3, 25]: 0
Morningglory plant response rating [3, 26]: 0
Plant response rating, Barnyardgrass [4, 29]: 0
Barnyardgrass plant response rating [4, 30]: 0
Barnyardgrass plant response rating [4, 31]: 0
Plant response rating, Barnyardgrass [4, 32]: 0
Plant response rating, Sugarbeets [5, 21]: 0
Sugarbeets plant response rating [5, 22]: 0
Plant response rating, Sugarbeets [5, 23]: 0
Plant response rating, Sugarbeets [5, 24]: 0
Sugarbeets plant response rating [5, 25]: 6
Sugarbeets plant response rating [5, 26]: 8
Plant response rating, Giant foxtail [6, 20]: 8
Plant response rating, Giant foxtail [6, 21]: 9
Giant foxtail plant response rating [6, 22]: 9
Plant response rating, Giant foxtail [6, 23]: 9
Plant response rating, Giant foxtail [6, 24]: 10
Giant foxtail plant response rating [6, 25]: 10
Giant foxtail plant response rating [6, 26]: 10
Giant foxtail plant response rating [6, 27]: 5
Plant response rating, Nutsedge [7, 21]: 0
Nutsedge plant response rating [7, 22]: 0
Plant response rating, Nutsedge [7, 23]: 0
Plant response rating, Nutsedge [7, 24]: 0
Nutsedge plant response rating [7, 25]: 0
Nutsedge plant response rating [7, 26]: 0
Wild oats plant response rating [8, 22]: 3
Plant response rating, Wild oats [8, 23]: 0
Plant response rating, Wild oats [8, 24]: 3
Wild oats plant response rating [8, 25]: 6
Wild oats plant response rating [8, 26]: 6
Rice plant response rating [9, 33]: 0
Plant response rating, Rice [9, 34]: 0
Plant response rating, Cocklebur [10, 20]: 0
Plant response rating, Cocklebur [10, 21]: 1
Cocklebur plant response rating [10, 22]: 4
Plant response rating, Cocklebur [10, 23]: 0
Plant response rating, Cocklebur [10, 24]: 0
Cocklebur plant response rating [10, 25]: 0
Cocklebur plant response rating [10, 26]: 0
Cocklebur plant response rating [10, 27]: 0
S. Flatsedge plant response rating [11, 33]: 3
Plant response rating, S. Flatsedge [11, 34]: 3
Plant response rating, Velvetleaf [12, 21]: 2
Velvetleaf plant response rating [12, 22]: 2
Plant response rating, Velvetleaf [12, 23]: 0
Plant response rating, Velvetleaf [12, 24]: 2
Velvetleaf plant response rating [12, 25]: 6
Velvetleaf plant response rating [12, 26]: 7
Plant response rating, Ducksalad [13, 29]: 0
Ducksalad plant response rating [13, 30]: 0
Ducksalad plant response rating [13, 31]: 0
Plant response rating, Ducksalad [13, 32]: 0
Plant response rating, Soybean [14, 21]: 4
Soybean plant response rating [14, 22]: 7
Plant response rating, Soybean [14, 23]: 0
Plant response rating, Soybean [14, 24]: 0
Soybean plant response rating [14, 25]: 0
Soybean plant response rating [14, 26]: 0
Wheat plant response rating [15, 22]: 3
Plant response rating, Wheat [15, 23]: 0
Plant response rating, Wheat [15, 24]: 0
Wheat plant response rating [15, 25]: 2
Wheat plant response rating [15, 26]: 3
Plant response rating, Redroot pigweed [16, 21]: 0
Redroot pigweed plant response rating [16, 22]: 3
Plant response rating, Redroot pigweed [16, 23]: 0
Plant response rating, Redroot pigweed [16, 24]: 0
Redroot pigweed plant response rating [16, 25]: 6
Redroot pigweed plant response rating [16, 26]: 10
Plant response rating, Rape [17, 21]: 0
Rape plant response rating [17, 22]: 1
Plant response rating, Rape [17, 23]: 2
Plant response rating, Rape [17, 24]: 6
Rape plant response rating [17, 25]: 10
Rape plant response rating [17, 26]: 10
Plant response rating, B. signalgrass [18, 20]: 0
Plant response rating, B. signalgrass [18, 21]: 2
B. signalgrass plant response rating [18, 22]: 6
Plant response rating, B. signalgrass [18, 23]: 2
Plant response rating, B. signalgrass [18, 24]: 3
B. signalgrass plant response rating [18, 28]: 6
B. signalgrass plant response rating ([18]; Preemergence, Rate 500 g/ha, scale of 0 to 10 where 0 is no effect and 10 is complete control): 6
B. signalgrass plant response rating [18, 27]: 0
Plant response rating, Crabgrass [19, 20]: 1
Plant response rating, Crabgrass [19, 21]: 8
Crabgrass plant response rating [19, 22]: 9
Plant response rating, Crabgrass [19, 23]: 8
Plant response rating, Crabgrass [19, 24]: 8
Crabgrass plant response rating [19, 25]: 9
Crabgrass plant response rating [19, 26]: 10
Crabgrass plant response rating [19, 27]: 0

Source: patent US6737383B1, “Herbicidal oxadiazolidines” (priority 1999, dated 2004)
